Laboratory results published in PMC4965013, “Open Source Drug Discovery with the Malaria Box Compound Collection for Neglected Diseases and Beyond” (PLoS Pathogens, 2016).
Where two headings read alike, the source gives them in different places.

What was measured:
[1] = test system: P. berghei liver stages in HepG2; experiment: P. berghei liver stage luciferase Hanson; type: cell-based; settings: Plasmodium berghei, read-out: P. berghei Liver Stage % of control infection (Luciferase)
Experimental: Columns AS-AT: Hanson group (data presented first in this paper). P. berghei liver stage growth. Phenotypic analysis of Malaria Box compound activity against P. berghei liver stages and assay development will be reported elsewhere (Medina Vera, Itoe, et al; in preparation). Methods: Screening was carried out in 96 well plates, with 10,000 HepG2 cells (ATCC) seeded one day prior to infection with 10,000 P. berghei-Luciferase (676m1cl1) sporozoites per well in the presence of 1:300 Fungizone (Life Technologies). Medium was replaced 2 hours post-infection (hpi) and the Malaria Box compounds were added at a final concentration of 5 µM at this time. At 48 hpi, parasite load, by way of luminescence, was quantified after a 10 minute incubation with 50 µl of 150 µg/ml D-Luciferin on a Tecan Infinite M200 plate reader. Plates included 8 wells of DMSO (compound vehicle and positive control for infection), along with 8 non-infected wells serving as negative controls. Luminescence values for individual wells were normalized to the mean of the in-plate DMSO controls, which was set at 100. […] The normalized mean of non-infected control wells was 2.5, with a standard deviation of 2. Data presented are the average of 3 independent experiments, each conducted in technical triplicate. Toxicity of the compounds was determined at 66 hpi based on HepG2 cell abundance in 9 non-overlapping images per well, generated with a Molecular Devices IXM using a 40x objective. Briefly, EEFs were identified based on 2E6 immunolabeling and used to mask widefield images of Hoechst 33452-labeled nuclei, and the percentage of each 2,160 x 2,160 pixel image occupied by Hoechst^+ pixels, representing HepG2 nuclei only, was then determined for all images in CellProfiler. Data is from one representative experiment. The mean area occupied by HepG2 nuclei in the 8 DMSO controls wells was set to 1, and used to normalize those treated with compounds.

[2] = test system: Trypanosoma brucei brucei 427; experiment: T. brucei brucei Scynexis; type: cell-based
[3] = test system: U87-CD4-CCR5 or U87-CD4-CXCR4 cells; experiment: U87 cell viability MTT; type: cell-based; settings: for U87 % cell death rep3 (X4 P24 Washout expt): 5uM; for U87 % Cell Death rep3 (R5 P24 Washout expt) / U87 % cell death rep3 (R5 P24 NO Washout expt) / U87 % cell death rep3 (X4 P24 NO Washout expt) / U87 Luc % cell death rep1 / U87 Luc % cell death rep2: 5µM
[4] = test system: HIV-1 JR-FL or HIV-1 NL4-3 pseudoviruses; experiment: HIV-1 pseudovirus infection luciferase; type: cell-based
Experimental: Columns FK-GB, Moore group (data presented first in this paper). HIV and HIV-producing cell lines, toxicity and viral suppression. […] MMV compounds were incubated with HIV-1 JR-FL or HIV-1 NL4-3 pseudoviruses and U87-CD4-CCR5 or U87-CD4-CXCR4 cells (obtained through the NIH AIDS Reagent Program, Division of AIDS, NIAID, NIH: U87 CD4+CCR5+ Cells from Dr. HongKui Deng and Dr. Dan R. Littman) respectively for 3 days. Cells were assayed for infection by luciferase production (Bright-Glo Luciferase Substrate, Promega) and cell viability by MTT assay. […] MMV compounds were next incubated with HIV-1 JR-FL or HIV-1 NL4-3 viruses and U87-CD4-CCR5 or U87-CD4-CXCR4 cells respectively for 7 days. Cell supernatants were assayed for viral production by p24 ELISA [153] and cell viability by MTT assay. […] DMSO (5%) was completely toxic to all cells (based on visual inspection) and served as the positive control for MTT assays.

[5] = test system: primary human hepatocytes; experiment: MPCC hepatotoxicity (albumin, urea, morphology); type: cell-based; settings: 10µM
[6] = Plasma protein binding mouse; type: in vitro ADME; settings: CD-1, mouse
Experimental: Columns GD-GJ: Wuxi Inc. data for MMV (data presented first in this paper) PK/DMPK Parameters: Fasted animals (Male CD-1 mouse, 7-9 weeks age, 30±10 g, n=3) obtained from an approved vendor (SLAC Laboratory Animal Co. Ltd., Shanghai, China or Sino-British SIPPR/BK Laboratory Animal Co. Ltd Shanghai, China) were administered with a single oral dose (140 μmol/kg) using DMSO: 1% HPMC (5:95) as a vehicle. Blood sampling was performed via the submandibular or saphenous vein (t=0.083, 0.25, 1, 2, 4, 6 and 9 h) and transferred into microcentrifuge tubes containing Sodium Heparin (1,000 IU/ml) as anti-coagulant placed on wet ice until processed for plasma by centrifugation at approximately 4°C, 3000×g for 15 min. Plasma samples were stored in polypropylene tubes, quick frozen over dry ice and kept at -70±10°C until LC/MS/MS analysis. LC/MS/MS methods for the quantitative determination compounds plasma levels were developed with an internal standard. […] (Phoenix WinNonlin, version 6.2.1, Pharsight, Mountain View, CA) and expressed as Cmax & AUC0-last. […] AUC0-last is the area under the curve expressed as >12 h*μM (Yes or No). Plasma protein binding assay (PPB) (CD-1 mouse and human) expressed as <95% bound, >95% bound, or >99% bound. Kinetic Solubility at pH 7.4 was determined by liquid chromatography/chemiluminescence nitrogen detection (LC/CLND) and was scored as greater than 20µM (Yes or No). hERG inhibition was measured at 11µM by the QPatch- HT system and is expressed as “Yes” if greater than 45% inhibited at 11µM and “No” if less than or equal to 45% inhibited at 11µM. As part of the Drug-Drug Interaction studies (DDI issues), 5 human and 1 mouse CYP isoforms (1A2, 2C9, 2C19, 2D6, 3A4-M, 3A4-T) were tested for inhibition assay at 10 µM. […] Otherwise DDI issues were scored as “No”. Positive and negative controls were run for each assay (Table 1).

[7] = test system: P. falciparum NF54 gametocytes; set-up: method as in ref [72] (a number printed in a supplementary file, which may have a reference list of its own: not looked up in the article's list); settings: 10µM; ref [72]; cited from earlier work
[8] = test system: Trypanosoma brucei rhodesiense STIB 900; settings: ref [84]; cited from earlier work
[9] = test system: S. mansoni newly transformed schistosomula (NTS); set-up: method as in ref [91] (a number printed in a supplementary file, which may have a reference list of its own: not looked up in the article's list); settings: ref [91]; read-out: Schistosoma mansoni newly transformed schistosomula EC50 J. Keiser; cited from earlier work
[10] = test system: HIV-1 JR-FL or HIV-1 NL4-3 pseudoviruses; experiment: HIV-1 pseudovirus infection luciferase; type: cell-based; settings: Human immunodeficiency virus 1, HXB2 / NL43, read-out: HIV HXB2 % inhibition rep2 in U87 Luc
[11] = Human immunodeficiency virus 1, NL43, read-out: HIV JRFL % inhibition rep1 in U87 Luc
[12] = Human immunodeficiency virus 1, NL43, read-out: HIV JRFL % inhibition rep2 in U87 Luc
[13] = Human immunodeficiency virus 1, NL43, read-out: HIV NL4-3 % inhibition rep1 in U87 Luc

Structure (SMILES): CCOC(=O)c1cnc2ccc(OC)cc2c1NCc1ccccc1 [MMV665813]
- activity at 5 µM [1]: 66%
- inhibition at 5 µM [2]: -25%
- U87 % cell death rep3 (X4 P24 Washout expt) [3]: 12%
- U87 % Cell Death rep3 (R5 P24 Washout expt) [3]: -10%
- U87 % cell death rep3 (R5 P24 NO Washout expt) [3]: -9%
- U87 % cell death rep3 (X4 P24 NO Washout expt) [3]: 46%
- U87 Luc % cell death rep1 [3]: -52%
- U87 Luc % cell death rep2 [3]: 36%
- inhibition at 5 µM [4, 11]: -33%
- inhibition at 5 µM [4, 12]: -10%
- inhibition at 5 µM [4, 13]: -135%
- Human hepatocyte Urea synthesis, 1.0 normal [5]: 0.81
- Human hepatocyte albumin synthesis, 1.0 normal [5]: 0.93
- fraction unbound [6]: < 0.01
- gametocyte stage IV-V SYBR Green % inhibition [7]: 61%
- EC50 [8]: 4.95 µM
- EC50 [9]: > 33.3 µM
- inhibition at 5 µM [10]: -1.56%

Structure (SMILES): CCN1CCN(c2cc(C)c3cc(NC(=O)c4ccc(OC)c(OC)c4)ccc3n2)CC1 [MMV019074]
- activity at 5 µM [1]: 105%
- inhibition at 5 µM [2]: 45%
- U87 % cell death rep3 (X4 P24 Washout expt) [3]: -32%
- U87 % Cell Death rep3 (R5 P24 Washout expt) [3]: 7.48%
- U87 % cell death rep3 (R5 P24 NO Washout expt) [3]: 17%
- U87 % cell death rep3 (X4 P24 NO Washout expt) [3]: 3.26%
- U87 Luc % cell death rep1 [3]: 0.063%
- U87 Luc % cell death rep2 [3]: 10%
- inhibition at 5 µM [4, 11]: 11%
- inhibition at 5 µM [4, 12]: -62%
- inhibition at 5 µM [4, 13]: 13%
- Human hepatocyte Urea synthesis, 1.0 normal [5]: 0.58
- Human hepatocyte albumin synthesis, 1.0 normal [5]: 0.51
- fraction unbound [6]: < 0.05
- gametocyte stage IV-V SYBR Green % inhibition [7]: 47%
- EC50 [8]: 3.22 µM
- EC50 [9]: > 33.3 µM
- inhibition at 5 µM [10]: -69%

Structure (SMILES): CCN(CC)c1cc(C)c2cc(NC(=O)c3cccc(OC)c3)ccc2n1 [MMV000498]
- activity at 5 µM [1]: 63%
- inhibition at 5 µM [2]: 74%
- U87 % cell death rep3 (X4 P24 Washout expt) [3]: -4%
- U87 % Cell Death rep3 (R5 P24 Washout expt) [3]: 1.63%
- U87 % cell death rep3 (R5 P24 NO Washout expt) [3]: 33%
- U87 % cell death rep3 (X4 P24 NO Washout expt) [3]: 13%
- U87 Luc % cell death rep1 [3]: 21%
- U87 Luc % cell death rep2 [3]: 64%
- inhibition at 5 µM [4, 11]: -9%
- inhibition at 5 µM [4, 12]: 52%
- inhibition at 5 µM [4, 13]: 15%
- Human hepatocyte Urea synthesis, 1.0 normal [5]: 0.65
- Human hepatocyte albumin synthesis, 1.0 normal [5]: 0.57
- fraction unbound [6]: < 0.01
- gametocyte stage IV-V SYBR Green % inhibition [7]: 60%
- EC50 [8]: 0.679 µM
- EC50 [9]: > 33.3 µM
- inhibition at 5 µM [10]: 55%

Structure (SMILES): COc1ccc(C(=O)Nc2ccc3nc(N4CCCCC4)cc(C)c3c2)cc1OC [MMV019758]
- activity at 5 µM [1]: 74%
- inhibition at 5 µM [2]: -11%
- U87 % cell death rep3 (X4 P24 Washout expt) [3]: -25%
- U87 % Cell Death rep3 (R5 P24 Washout expt) [3]: 3.19%
- U87 % cell death rep3 (R5 P24 NO Washout expt) [3]: 39%
- U87 % cell death rep3 (X4 P24 NO Washout expt) [3]: -2.11%
- U87 Luc % cell death rep1 [3]: -1.12%
- U87 Luc % cell death rep2 [3]: 4.5%
- inhibition at 5 µM [4, 11]: 4.56%
- inhibition at 5 µM [4, 12]: -50%
- inhibition at 5 µM [4, 13]: 7%
- Human hepatocyte Urea synthesis, 1.0 normal [5]: 0.66
- Human hepatocyte albumin synthesis, 1.0 normal [5]: 0.58
- fraction unbound [6]: < 0.01
- gametocyte stage IV-V SYBR Green % inhibition [7]: 49%
- EC50 [8]: 10.9 µM
- EC50 [9]: > 33.3 µM
- inhibition at 5 µM [10]: -36%

Structure (SMILES): COc1cc2cc(C(=O)Nc3ccccc3)c(N)nc2cc1OC [MMV006767]
- activity at 5 µM [1]: 53%
- inhibition at 5 µM [2]: -54%
- U87 % cell death rep3 (X4 P24 Washout expt) [3]: 51%
- U87 % Cell Death rep3 (R5 P24 Washout expt) [3]: -0.103%
- U87 % cell death rep3 (R5 P24 NO Washout expt) [3]: 95%
- U87 % cell death rep3 (X4 P24 NO Washout expt) [3]: 106%
- U87 Luc % cell death rep1 [3]: 75%
- U87 Luc % cell death rep2 [3]: 43%
- inhibition at 5 µM [4, 11]: 93%
- inhibition at 5 µM [4, 12]: 64%
- inhibition at 5 µM [4, 13]: 96%
- Human hepatocyte Urea synthesis, 1.0 normal [5]: 1.00
- Human hepatocyte albumin synthesis, 1.0 normal [5]: 0.82
- fraction unbound [6]: > 0.05
- gametocyte stage IV-V SYBR Green % inhibition [7]: 60%
- EC50 [9]: > 33.3 µM
- inhibition at 5 µM [10]: 51%
